According to US20260007133A1, “HERBICIDAL COMPOSITION COMPRISING AZINE COMPOUNDS” (BASF SE, priority 2022, published 2026):
Values joined by “and” are separate entries in the source; they are usually repeats but may differ in a detail not shown here. Identical values can stand only once. Like-named read-outs stand apart in the source and are kept apart here.

Legend:
Assay type in all cases: in vivo
Ambrosia artemisiifolia = experiment: Greenhouse pre-emergence (PRE) herbicidal test on AMBEL; conditions: Ambrosia artemisiifolia, pre-emergence, 480 h, PRE, AMBEL, use rate 1 gai/ha, 20 DAT
Avena fatua = experiment: Greenhouse pre-emergence (PRE) herbicidal test on AVEFA; conditions: use rate 4 gai/ha
Source text: (§1) The culture containers used were plastic pots containing loamy sand with approximately 3.0% of humus as substrate. The seeds of the test plants were sown separately for each species.
(§2) For the pre-emergence treatment, the active compounds, suspended or emulsified in water, were applied directly after sowing by means of finely distributing nozzles. The containers were irrigated gently to promote germination and growth and subsequently covered with transparent plastic hoods until the plants had rooted. This cover caused uniform germination of the test plants unless this was adversely affected by the active compounds.
(§3) Depending on the species, the plants were kept at 10-25° C. and 20-35° C., respectively.
(§4) The test period extended over 2 to 4 weeks. During this time, the plants were tended and their response to the individual treatments was evaluated.
(§5) Evaluation was carried out using a scale from 0 to 100. 100 means no emergence of the plants, or complete destruction of at least the above-ground parts, and 0 means no damage or normal course of growth. A good herbicidal activity is given at values of at least 70, and very good herbicidal activity is given at values of at least 85.
(§6) If not stated differently, the respective components A and B, and if appropriate, C were formulated as a 5% by weight strength emulsion concentrate and, with addition of the amount of solvent system, introduced into the spray liquor used for applying the active compound.
(§7) As indicated application was either post emergent (POST) at the respective growth stage (GS) of the weed (BBCH code), or pre-emergent (PRE).
(§8) Assessment was 20 days after treatment (DAT).

Brachiaria decumbens = experiment: Greenhouse pre-emergence (PRE) herbicidal test on BRADC; conditions: Urochloa decumbens, PRE, BRADC, use rate 1 gai/ha
In short: (§9)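 Visual rating on a 0 (normal growth) to 100 (no emergence or above-ground kill) scale at 20 DAT. Treatment was pre-emergence spray of aqueous suspension/emulsion right after sowing into loamy sand with ~3.0% humus; covered until rooted, grown at 10-25° C or 20-35° C depending on species.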

Commelina benghalensis = experiment: Greenhouse pre-emergence (PRE) herbicidal test on COMBE; conditions: Commelina benghalensis, pre-emergence, COMBE PRE
In short: (§10)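 Scoring ran from 0 (normal growth) to 100 (no emergence or above-ground parts fully destroyed) and was done 20 DAT. Application was pre-emergent in pots of loamy sand (~3.0% humus) sown per species. Plants grew at 10-25° C or 20-35° C by species.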

Echinochloa crus-galli [1] = experiment: Greenhouse pre-emergence (PRE) herbicidal test on ECHCG; conditions: PRE, ECHCG, use rate 2 gai/ha, 20 DAT
Euphorbia heterophylla [2] = experiment: Greenhouse pre-emergence (PRE) herbicidal test on EPHHL
In short: as §10

Galium aparine = experiment: Greenhouse pre-emergence (PRE) herbicidal test on GALAP; conditions: Galium aparine, pre-emergence; PRE; GALAP; use rate 1 gai/ha
Source text: as §1, §2, §3, §4, §5, §6, §7, §8

Geranium pusillum = experiment: Greenhouse pre-emergence (PRE) herbicidal test on GERPU; conditions: Geranium pusillum, pre-emergence; for inhibition at 4 g/ha: use rate 4 gai/ha
In short: as §9

Lolium multiflorum = experiment: Greenhouse pre-emergence (PRE) herbicidal test on LOLMU; conditions: Lolium multiflorum, pre-emergence; for inhibition at 1 g/ha: use rate 1 gai/ha
In short: as §10

Setaria viridis = experiment: Greenhouse pre-emergence (PRE) herbicidal test on SETVI; conditions: Setaria viridis, pre-emergence, 480 h; PRE, SETVI, use rate 2 gai/ha, 20 DAT; read-out: % activity
In short: as §9

Abutilon theophrasti = experiment: Greenhouse post-emergence (POST) herbicidal test on ABUTH; conditions: Abutilon theophrasti, post-emergence, POST, ABUTH; for inhibition at 2 g/ha: use rate 2 gai/ha, read-out: % activity
In short: (§11)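 Greenhouse weeds, raised in pots of humus-containing loamy sand, receive a water-based spray of the actives once 3 to 15 cm tall. Damage is rated visually from 0 (none) to 100 (above-ground parts destroyed) 20 days after treatment.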

Amaranthus retroflexus = experiment: Greenhouse post-emergence (POST) herbicidal test on AMARE; conditions: Amaranthus retroflexus, post-emergence, POST; AMARE; use rate 1 gai/ha
In short: as §11

Echinochloa crus-galli [3] = experiment: Greenhouse post-emergence (POST) herbicidal test on ECHCG; conditions: Echinochloa crus-galli, post-emergence; for inhibition at 1 g/ha: use rate 1 gai/ha
In short: as §11

Euphorbia heterophylla [4] = experiment: Greenhouse post-emergence (POST) herbicidal test on EPHHL; conditions: Euphorbia heterophylla, post-emergence, POST, EPHHL; for inhibition at 2 g/ha: use rate 2 gai/ha, read-out: % activity
In short: as §11

[5] = 480 h, use rate 4 gai/ha, 20 DAT

COc1c(F)cc(F)c(F)c1Nc1nc(N)nc(C(C)(C)F)n1 [Compound I-1]
inhibition at 1 g/ha (Ambrosia artemisiifolia): 10% | inhibition at 4 g/ha (Avena fatua): 70% | inhibition at 1 g/ha (Brachiaria decumbens): 0% | inhibition at 1 g/ha (Commelina benghalensis; use rate 1 gai/ha): 35% | inhibition at 4 g/ha (Commelina benghalensis; use rate 4 gai/ha): 0% | % activity (Echinochloa crus-galli [1]): 35% and 65% | % activity (Euphorbia heterophylla [2]; EPHHL PRE, use rate 4 gai/ha): 20% | inhibition at 16 g/ha (Euphorbia heterophylla [2]; Euphorbia heterophylla, pre-emergence, 480 h, PRE, EPHHL, use rate 16 gai/ha, 20 DAT): 60% | inhibition at 4 g/ha (Euphorbia heterophylla [2]; Euphorbia heterophylla, pre-emergence, EPHHL PRE, use rate 4 gai/ha): 25% | inhibition at 1 g/ha (Euphorbia heterophylla [2]; Euphorbia heterophylla, pre-emergence, PRE, EPPHL, use rate 1 gai/ha, read-out: % activity): 0% | inhibition at 4 g/ha (Euphorbia heterophylla [2]; Euphorbia heterophylla, pre-emergence, PRE, EPPHL, use rate 4 gai/ha): 70% | inhibition at 1 g/ha (Galium aparine): 0% | inhibition at 4 g/ha (Geranium pusillum; 480 h, PRE, GERPU, 20 DAT): 50% | inhibition at 1 g/ha (Geranium pusillum; GERPU PRE, use rate 1 gai/ha): 0% | inhibition at 4 g/ha (Geranium pusillum; GERPU PRE): 20% | inhibition at 4 g/ha (Geranium pusillum; PRE, GERPU): 10% | inhibition at 1 g/ha (Lolium multiflorum; 480 h, PRE, LOLMU, 20 DAT): 40% | inhibition at 2 g/ha (Lolium multiflorum; 480 h, PRE, LOLMU, use rate 2 gai/ha, 20 DAT, read-out: % activity): 50% | inhibition at 1 g/ha (Lolium multiflorum; LOLMU PRE): 20% | inhibition at 4 g/ha (Lolium multiflorum; LOLMU PRE, use rate 4 gai/ha): 85% | inhibition at 1 g/ha (Lolium multiflorum; PRE, LOLMU): 35% | inhibition at 2 g/ha (Setaria viridis): 20% | inhibition at 2 g/ha (Abutilon theophrasti; 480 h, 20 DAT): 30% | inhibition at 4 g/ha (Abutilon theophrasti; [5]): 50% | inhibition at 1 g/ha (Abutilon theophrasti; use rate 1 gai/ha): 10% | inhibition at 2 g/ha (Abutilon theophrasti): 10% | inhibition at 1 g/ha (Amaranthus retroflexus): 50% | inhibition at 4 g/ha (Echinochloa crus-galli [3]; 480 h, POST, ECHCG, use rate 4 gai/ha, 20 DAT): 0% | inhibition at 1 g/ha (Echinochloa crus-galli [3]; ECHCG POST, read-out: % activity): 30% | inhibition at 1 g/ha (Echinochloa crus-galli [3]; POST, ECHCG, read-out: % activity): 10% | inhibition at 2 g/ha (Echinochloa crus-galli [3]; POST, ECHCG, use rate 2 gai/ha, read-out: % activity): 10% | inhibition at 2 g/ha (Euphorbia heterophylla [4]; 480 h, 20 DAT): 50% | inhibition at 4 g/ha (Euphorbia heterophylla [4]; [5]): 60% | inhibition at 2 g/ha (Euphorbia heterophylla [4]): 40%
